Results reported in patent US20170042888A1, “GLYT1 INHIBITORS FOR USE IN THE TREATMENT OF HEMATOLOGICAL DISORDERS” (Hoffmann-La Roche Inc., priority 2014, published 2017).

Columns and labels:
female Wistar rats [1] = assay: 26-week oral gavage study in female Wistar rats, hematological parameters in peripheral blood (Bayer ADVIA 120); type: in vivo, rat
Method: FIG. 2 Effect of [5-Methanesulfonyl-2-((S)-2,2,2-trifluoro-1-methyl-ethoxy) phenyl]-(3-trifluoromethyl-5,7-dihydro-pyrrolo[3,4-b]pyridin-6-yl)-methanone on mean group hemoglobin in female rats (26-week study)
(§1) [5-Methanesulfonyl-2-((S)-2,2,2-trifluoro-1-methyl-ethoxy)phenyl]-(3-trifluoromethyl-5,7-dihydro-pyrrolo[3,4-b]pyridin-6-yl)-methanone was administered daily for 26-weeks by oral gavage to 20 females Wistar rats per group at doses of 2, 6 and 12 mg/kg/day, followed by a 4-week recovery period off treatment for which 6 additional females where allocated per dose group. The control group was treated with a vehicle control during the dosing period. At various time points during the study hematological parameters including Hb were investigated in peripheral blood using the Bayer, ADVIA 120 hematology analyser. Data represent group mean values and error bars indicate the standard deviation (SD).
FIG. 4 Effect of [5-Methanesulfonyl-2-((S)-2,2,2-trifluoro-1-methyl-ethoxy)phenyl](3-trifluoromethyl-5,7-dihydro-pyrrolo[3,4-b]pyridin-6-yl)-methanone on mean group MCH in female rats (26-week study)
as §1, with “[5-Methanesulfonyl-2-((S)-2,2,2-trifluoro-1-methyl-ethoxy)phenyl](3-trifluoromethyl-5,7-dihydro-pyrrolo[3,4-b]pyridin-6-yl)-methanone” for “[5-Methanesulfonyl-2-((S)-2,2,2-trifluoro-1-methyl-ethoxy)phenyl]-(3-trifluoromethyl-5,7-dihydro-pyrrolo[3,4-b]pyridin-6-yl)-methanone”, “haematology” for “hematology”

female Wistar rats [2] = assay: 8-week dietary admix study in female Wistar rats, hematological parameters in peripheral blood (SYSMEX XT analyser); type: in vivo, rat
Method: FIG. 1 Effect of 4-(3-fluoro-5-trifluoromethyl-pyridin-2-yl)-piperazin-1-yl]-[5-methanesulfonyl-2-((S)-2,2,2-trifluoro-1-methyl-ethoxy)-phenyl]-methanone on mean group hemoglobin in female rats (8-week study)
4-(3-Fluoro-5-trifluoromethyl-pyridin-2-yl)-piperazin-1-yl]-[5-methanesulfonyl-2-((S)-2,2,2-trifluoro-1-methyl-ethoxy)-phenyl]-methanone was administered daily for 8-weeks by dietary admix to female Wistar rats to achieve doses of 1, 3, and 8 mg/kg/day, followed by a 4-week recovery period off treatment. The control group received standard diet only during the whole study period. At various time points during the study hematological parameters including Hb were investigated in peripheral blood using a SYSMEX XT analyser. Data represent group mean values and error bars indicate standard deviation (SD).
FIG. 3 Effect of 4-(3-fluoro-5-trifluoromethyl-pyridin-2-yl)-piperazin-1-yl]-[5-methanesulfonyl-2-((S)-2,2,2-trifluoro-1-methyl-ethoxy)-phenyl]-methanone on mean group MCH in female rats (8-week study)
4-(3-fluoro-5-trifluoromethyl-pyridin-2-yl)-piperazin-1-yl]-[5-methanesulfonyl-2-((S)-2,2,2-trifluoro-1-methyl-ethoxy)-phenyl]-methanone was administered daily for 8-weeks by dietary admix to female Wistar rats to achieve doses of 1, 3, and 8 mg/kg/day followed by a 4-week recovery period off treatment. The control group received standard diet during the whole study period. At various time points during the study hematological parameters including MCH were investigated in peripheral blood using a SYSMEX XT analyser. Data represent group mean values and error bars indicate the standard deviation (SD).

[3] = test system: soluble transferrin receptor (sTfrR); assay: 36-week oral study in cynomolgus monkeys, sTfR in peripheral blood (SISCAPA assay with mass spectrometry); type: in vivo, cynomolgus monkey; conditions: cynomolgus monkeys, 1, 3 and 9 mg/kg/day by capsule via oral gavage for 36 weeks (FIG. 5)
Method: FIG. 5 Effect of 4-(3-fluoro-5-trifluoromethyl-pyridin-2-yl)-piperazin-1-yl]-[5-methanesulfonyl-2-((S)-2,2,2-trifluoro-1-methyl-ethoxy)-phenyl]-methanone on sTrfR in female cynomolgus monkeys
4-(3-fluoro-5-trifluoromethyl-pyridin-2-yl)-piperazin-1-yl]-[5-methanesulfonyl-2-((S)-2,2,2-trifluoro-1-methyl-ethoxy)-phenyl]-methanone was administered by capsule via oral gavage to 4 male and 4 female cynomolgus monkeys per group at dose levels of control vehicle, 1, 3 and 9 mg/kg/day for 36 weeks. An additional 2 animals per sex from the control and high-dose group were maintained for an additional 13-week recovery period for assessment of reversibility of any findings. Measurement of sTfR was performed on various occasions during the study in peripheral blood samples. Measurements were done using a SISCAPA Assay Technologies Inc. developed assay, designed to identify the soluble fragment of the human transferrin receptor (sTfR) in serum, plasma and blood using the SISCAPA® workflow in combination with mass spectrometry. The human assay was adapted and validated for cynomolgus sTf measurements. Data shown represent group mean values, error bars indicate the standard deviation.

SMILES | overall maximal decrease in total hemoglobin concentration (female Wistar rats [1]; female Wistar rats, 2, 6 and 12 mg/kg/day by oral gavage for 26 weeks) [%] | induced erythropoiesis type (female Wistar rats [1]; female Wistar rats, 2, 6 and 12 mg/kg/day by oral gavage for 26 weeks, all dose levels) | total hemoglobin concentration (female Wistar rats [1]; female Wistar rats, 2, 6 and 12 mg/kg/day by oral gavage for 26 weeks, all dose levels (FIG. 2)) | intracellular hemoglobin, MCH (female Wistar rats [1]; female Wistar rats, 2, 6 and 12 mg/kg/day by oral gavage for 26 weeks, all dose levels (FIG. 4)) | reversibility of the hemoglobin effect (female Wistar rats [1]; female Wistar rats, 4-week recovery period off treatment after 26 weeks) | overall maximal decrease in total hemoglobin concentration (female Wistar rats [2]; female Wistar rats, 1, 3 and 8 mg/kg/day by dietary admix for 8 weeks) [%] | induced erythropoiesis type (female Wistar rats [2]; female Wistar rats, 1, 3 and 8 mg/kg/day by dietary admix for 8 weeks, all dose levels) | total hemoglobin concentration (female Wistar rats [2]; female Wistar rats, 1, 3 and 8 mg/kg/day by dietary admix for 8 weeks, all dose levels (FIG. 1)) | intracellular hemoglobin, MCH (female Wistar rats [2]; female Wistar rats, 1, 3 and 8 mg/kg/day by dietary admix for 8 weeks, all dose levels (FIG. 3)) | reversibility of the hemoglobin effect (female Wistar rats [2]; female Wistar rats, 4-week recovery period off treatment after 8 weeks) | soluble transferrin receptor (sTfrR) in peripheral blood [3]
C[C@H](Oc1ccc(S(C)(=O)=O)cc1C(=O)N1Cc2cc(C(F)(F)F)cnc2C1)C(F)(F)F [[5-methanesulfonyl-2-((S)-2,2,2-trifluoro-1-methyl-ethoxy)-phenyl]-(3-trifluoromethyl-5,7-dihydro-pyrrolo[3,4-b]pyridin-6-yl)-methanone] | ≤ 20 | microcytic, hypochromic erythropoiesis | reduction | reduction | reversible | – | – | – | – | – | –
C[C@H](Oc1ccc(S(C)(=O)=O)cc1C(=O)N1CCN(c2ncc(C(F)(F)F)cc2F)CC1)C(F)(F)F [[4-(3-fluoro-5-trifluoromethyl-pyridin-2-yl)-piperazin-1-yl]-[5-methanesulfonyl-2-((S)-2,2,2-trifluoro-1-methyl-ethoxy)-phenyl]-methanone] | – | – | – | – | – | ≤ 20 | microcytic, hypochromic erythropoiesis | reduction | reduction | reversible | dose-dependent decrease
